ChEMBL document CHEMBL1772992, “Synthesis, in silico docking experiments of new 2-pyrrolidinone derivatives and study of their anti-inflammatory activity” (Bioorg Med Chem, 2011)
The source made the active and inactive calls. The rule behind the calls is not given here.

Columns and labels:
[1] = tested on: Radical scavenging activity; assay: Antioxidant activity assessed as DPPH free radical scavenging activity after 20 to 60 mins by spectrophotometry; assay type: functional; parameters: concentration or dose not given beside the values
[2] = Inhibition of soybean LOX assessed as inhibition of sodium linoleate to 13-hydroperoxylinoleic acid conversion by UV-visible spectrophotometry; parameters: species or system Glycine max
[3] = Antioxidant activity against AAPH-induced lipid peroxidation assessed as linoleic acid oxidation to diene hydroperoxide at 0.1 mM by UV-visible spectrophotometry; assay type: functional
Rattus norvegicus = assay: Antiinflammatory activity in Fisher 344 rat assessed as inhibition of carrageenan-induced paw edema at 0.01 mmol/kg, ip administered simultaneously with carrageenan measured after 3.5 hrs relative to control; assay type: functional; conditions: Fisher 344, ip
Glycine max = assay: Inhibition of soybean LOX assessed as inhibition of sodium linoleate to 13-hydroperoxylinoleic acid conversion at 0.1 mM by UV-visible spectrophotometry

SMILES	Activity [1]	IC50 [2] [µM]	inhibition [3]	inhibition in vivo at 10 µmol/kg (Rattus norvegicus) [%]	inhibition (Glycine max)
COC(=O)c1ccc(CN2C(=O)CC[C@H]2Cn2cncc2C(=O)O)cc1	3%	70.5	96%	34	
O=C1CC[C@@H](Cn2ccnc2)N1Cc1ccccc1-c1nn[nH]n1	30%		32%		5.2%
CC(Cc1ccc(O)c(O)c1)C(C)Cc1ccc(O)c(O)c1 (stereo not drawn)	81%				84%
O=C1CC[C@@H](Cn2ccnc2)N1Cc1ccccc1	9%		11%		13%
COC(=O)c1cncn1C[C@@H]1CCC(=O)N1Cc1ccc(C(=O)O)cc1	26%		inactive		inactive
Cc1c(C)c2c(c(C)c1O)CCC(C)(C(=O)O)O2 (stereo not drawn)			63%		
COC(=O)c1ccc(CN2C(=O)CC[C@H]2Cn2ccnc2)cc1	6%		13%		inactive
O=C(O)c1cncn1C[C@@H]1CCC(=O)N1Cc1ccccc1	inactive		inactive		81%
COc1ccc2c(c1)c(CC(=O)O)c(C)n2C(=O)c1ccc(Cl)cc1 [INDOMETHACIN]				47	
O=C1CC[C@@H](Cn2ccnc2)N1Cc1cccc(O)c1	29%		13%		inactive
O=C(O)c1ccc(CN2C(=O)CC[C@H]2Cn2ccnc2)cc1	6%	80	2%	41	
O=C(O)/C=C/c1ccc(O)c(O)c1 [CAFFEIC ACID]	5.5%	600	17%		
